Like-named read-outs stand apart in the source and are kept apart here.
Columns and labels:
[1] = target: human serum albumin (HSA) (Homo sapiens, UniProt P02768); conditions: cited from earlier work
[2] = cited from earlier work
[3] = cited from earlier work; remark: listed apart in the source
[4] = target: T1, HSA (Homo sapiens, UniProt P02768); conditions: cited from earlier work
T1 construct: from tissue; host or cells: serum

[5] = Serum concentration of CMPF in normal and uremic subjects; format: in vivo, human; conditions: uremic versus average normal concentration
Procedure: FIG. 4 illustrates carboxy-4-methyl-5-propyl-2-furanpropionate (CMPF) 401 in accordance with the present disclosure. CMPF is a 240 Da metabolite of furan fatty acids and a protein-bound uremic retention solute normally cleared by the healthy kidney. In CKD patients, CMPF levels are increased 5- to 15-fold compared to healthy subjects.
An average normal concentration for CMPF may be a mean (±SD) of about 4.6±1.8 with a range between about 3.6 and 7.7 mg/L. In uremic patients the mean concentration (CU) is about 25.9±10.2 mg/L (with a range of about 3.7 to 94 mg/L).
Accordingly, the relative increase (CU/CN) may be over 5-times higher than the average normal concentration. […] As much as 99.5% of all CMPF may be found bound to HSA in serum. Consequently, this high association to HSA may prevent a sufficient secretion due to lower renal clearance rates in uremic patients, for example, at a rate of about 0.05 mL/min, compared to 0.40 mL/min for healthy patients. Due to its strong binding affinity to HSA, the removal of CMPF through conventional hemodialysis is generally difficult and even practically ineffective.

[6] = target: HSA's binding site 1 (Homo sapiens, UniProt P02768); conditions: cited from earlier work
[7] = tested on: Piezo1; conditions: cited from earlier work

Chain of HSA's binding site 1 (P02768 25-609): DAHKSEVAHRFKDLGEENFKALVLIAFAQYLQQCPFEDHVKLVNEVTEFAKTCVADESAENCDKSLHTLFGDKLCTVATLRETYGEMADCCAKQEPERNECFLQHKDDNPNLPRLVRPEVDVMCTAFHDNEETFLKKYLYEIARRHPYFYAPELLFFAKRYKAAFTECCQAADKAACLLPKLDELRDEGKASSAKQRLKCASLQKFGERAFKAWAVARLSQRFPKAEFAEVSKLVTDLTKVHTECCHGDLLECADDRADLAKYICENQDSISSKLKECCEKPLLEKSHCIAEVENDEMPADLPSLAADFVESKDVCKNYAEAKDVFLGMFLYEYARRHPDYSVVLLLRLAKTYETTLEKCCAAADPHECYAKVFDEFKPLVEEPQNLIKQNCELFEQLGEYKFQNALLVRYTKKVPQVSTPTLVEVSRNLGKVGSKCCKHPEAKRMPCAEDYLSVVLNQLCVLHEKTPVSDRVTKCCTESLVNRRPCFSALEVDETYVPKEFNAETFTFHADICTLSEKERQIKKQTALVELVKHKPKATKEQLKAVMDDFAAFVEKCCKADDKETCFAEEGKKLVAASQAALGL
T1 sequence (P02768 25-609): as above
Chain of human serum albumin (HSA) (P02768 25-609): as above

In the case of CCCc1oc(CCC(=O)O)c(C(=O)O)c1C [CMPF, 3-carboxy-4-methyl-5-propyl-2-furanpropionate], the “constant of association with HSA molecules” value [1] is given as “about 10^8 M^−1”, the “average normal concentration, mean (±SD)” value ([2]; normal) is given as “about 4.6±1.8 mg/L” and the “mean concentration (CU)” value ([2]; uremic patients) is given as “about 25.9±10.2 mg/L”. For the same compound, the renal clearance rate ([3]; healthy patients) was 0.40 mL/min, the renal clearance rate ([3]; uremic patients) was “about 0.05 mL/min” and the “CMPF found bound to HSA in serum” value [4] was ≤ 99.5%. For the same compound, the “relative increase (CU/CN)” value [5] was “over 5 times”.

In the case of CC(C)C1=CC(=O)C2(C)C(C1=O)C1(C)C(=O)C=C(C(C)C)C(=O)C21 (centres unmarked) [DTQ, dithymoquinone], the “binding affinity towards HSA's binding site 1 relative to CMPF” value [6] is given as “higher binding affinity towards HSA's binding site 1 than CMPF”.

In the case of Cc1oc(-c2ccccc2)cc1C(=O)O [Jedi1], the Piezo1 stimulation [7] is listed as “stimulate Piezo1”.

For Cc1oc(-c2cccs2)cc1C(=O)O [Jedi2], the Piezo1 stimulation [7] is given as “stimulate Piezo1”.

For Clc1cccc(Cl)c1CSc1nnc(-c2cnccn2)s1 [Yoda1], the Piezo1 stimulation [7] is listed as “stimulate Piezo1”.

From patent publication US20230405201A1, “TECHNIQUES FOR INCREASING RED BLOOD CELL COUNT” (FRESENIUS MEDICAL CARE HOLDINGS, INC., priority 2020, published 2023)
